Results from US5166219A, “Systemic anti-inflammatory treatment” (Lidak Pharmaceuticals, priority 1991, dated 1992).
Read-outs that look alike come from different tables or passages of the source.

Assays:
[1] = system: growth of plants; conditions: Ries et al. and others; cited from earlier work
[2] = system: LP-BM 5 MuLV ecotropic virus; test: Percent virus inhibition / plaque count of LP-BM 5 MuLV ecotropic virus using XC indicator cells; type: cell-based; conditions: for inhibition at 0.5 µg/mL / inhibition at 5 µg/mL / inhibition at 50 µg/mL / inhibition at 500 µg/mL: read-out: % decrease
Procedure: A composition a composition consisting essentially of aliphatic alcohols having 22 carbons in the aliphatic chain in micelle suspension, […], was introduced into cultures of LP-BM 5 MuLV ecotropic virus, […], and the percent of virus inhibition, as compared with controls continuing only PBS buffer, indicated by cell-fusion activity and cell plaque count, using XC indicator cells (Virology 42:1136, 1970), was determined.
The effect of the C-20 to C-26 alcohols of this invention on ecotropic virus was further confirmed and compared with AZT.

[3] = system: collagen-induced arthritis; test: Treatment of collagen-induced arthritis (CIA) in DBA/1 mice; type: in vivo
Procedure: DBA/1 mice were injected intradermally at the base of the tail on days zero and 28 with 20 μg chick type II collagen emulsified in CFA. The mammals were followed for clinical signs of arthritis, i.e., joint erythema, edema, and loss of function. The data illustrated in FIG. 1 were derived from a series of 5 independently conducted experiments which show the clinical course of collagen-induced arthritis (CIA) in DBA/1 mice immunized with chick type II collagen/CFA. Male DBA/1 mice were immunized with 20 μg chick type Ii collagen emulsified in CFA on days zero and 28. The mammals were followed for a total of 70 days for clinical signs of arthritis, joint erythema, edema, and loss of function. That data represent the means and standard deviations of incidence of arthritis and spontaneous remission from 5 separate experiments using 10-15 mice per experiment. p As noted by others, Stuart, J. M., Townes, A. S., and Knag, A. H., Ann. Rev. Immunol. […] Histologic analysis (not shown) confirmed extensive mononuclear infiltration and pannus formation as reported by others using similar techniques, Wooley, P. H., Luthra, H. S., Stuart, J. M., and David, C. S., J. Exp. Med. 154:688-700, 1981. […] We used a four point scoring system where zero is a normal limb, 1 being marginal swelling and erythema, 2 being progressively more severe swelling, erythema, and lack of flexibility, and 3 being severe erythema, edema, and often complete fusion of the bone elements and lack of flexibility. […] S., J. Exp. Med. 154:688-700, 1981.
Male DBA/1 (obtained from Jackson Laboratories, Bar Harbor, Me.) were used at 8 to 12 weeks of age. The mice were immunized intradermally at the base of the tail on day zero and again on day 28 with 20 μg chick type II collagen, prepared exactly as described by others, Trentham, D. E., Townes, A. S., and Kang, A. H., J. Exp. Med. 146:857-858, 1977, or obtained commercially (Genzyme, Boston, Ma.), emulsified in complete Freund's adjuvant (Difco, Ann Arbor, Mi.). The mammals were examined visually twice weekly for arthritic signs, swollen and erythremic limbs. Induction of CIA-associated histopathology was assessed by evaluation of paraffin sections of normal limbs, and limbs obtained from mammals with various stages of the disease essentially as described by others, Wooley, P. H., Luthra, H. S., Stuart, J. M., and David, C. S., J. Exp. Med 154:688-700, 1981.
n-Docosanol was suspended in Pluronic F68® (Trademark of BASF Corp; chemical composition, poloxamer 188, a non-ionic detergent block co-polymer of propylene oxide and ethylene oxide) as follows: Pluronic F-68 (mw 8,400; BASF Corp., Parsippany, N.J.) was diluted to 10 mg/ml in warm (37° C.) Dulbecco's high glucose modified Eagle's medium (DMEM; Whittaker Bioproducts, Walkersville, Md.), and the solution then heated to 50° C. n-Docosanol was added at 10 mg/ml to the Pluronic F-68 in DMEM and the solution further heated to 86° C. wile sonicating (Branson 450 sonifier) for 21 minutes at an initial output of 65 watts. The resulting stock suspension contained 10 mg/ml of n-docosanol particles of 0.03-0.3 microns. The corresponding control solution was prepared identically except the n-docosanol was excluded.
Adult DBA/1 mice were immunized with collagen/CFA as described in […], and on day 44 after primary immunization the mammals were given a clinical score and placed in one of three groups. […] One group was treated once daily with 5 mg of n-docosanol as indicated in FIG. 3 (0.5 ml of 10 mg/ml n-docosanol in 10 mg/ml Pluronic F-68), half of which was given intravenously and the other half given subcutaneously. Another group was treated with 5 mg Pluronic F-68 control in a similar manner. The last group was left untreated.
The effects of n-docosanol on CIA in DBA/1 Mice are depicted in FIG. 3. Adult DBA/1 male mice were immunized with collagen/CFA as described in the legend to FIG. 2. […]

[4] = system: physical performance of athletes; conditions: vegetable oil bases, oral ingestion; U.S. Pat. No. 3,031,376; cited from earlier work
[5] = system: inflammatory disorders; conditions: Clark, U.S. Pat. No. 4,670,471; cited from earlier work

With `CCCCCCCCCCCCCCCCCCCCCCCCCCCCCCCCO` [C-32] as the compound, how does the plant growth activity [1] read?
The plant growth activity was “do not possess such physiological activity, or at least have very much less physiological activity in plant growth”.

With `Cc1cn([C@H]2C[C@H](N=[N+]=[N-])[C@@H](CO)O2)c(=O)[nH]c1=O` [AZT, reference compound] as the compound, how does the Plaques/culture ([2]; 0.5 μg/ml, 10^2 input) read?
The Plaques/culture was 34 ± 3 Plaques/culture.

What about the inhibition at 0.5 µg/mL ([2]; 0.5 μg/ml, 10^2 input) of the same compound?
The inhibition at 0.5 µg/mL was 69%.

And the Plaques/culture ([2]; 0.5 μg/ml, 10^3 input)?
The Plaques/culture was 657 ± 24 Plaques/culture.

What about the inhibition at 0.5 µg/mL ([2]; 0.5 μg/ml, 10^3 input) of the same compound?
Its inhibition at 0.5 µg/mL is 14%.

And the Plaques/culture ([2]; 5 μg/ml, 10^2 input)?
Its Plaques/culture is 43 ± 3 Plaques/culture.

What about the inhibition at 5 µg/mL ([2]; 5 μg/ml, 10^2 input) of the same compound?
The inhibition at 5 µg/mL was 60%.

And the Plaques/culture ([2]; 5 μg/ml, 10^3 input)?
Its Plaques/culture is 382 ± 59 Plaques/culture.

What about the inhibition at 5 µg/mL ([2]; 5 μg/ml, 10^3 input) of the same compound?
The inhibition at 5 µg/mL was 50%.

And the Plaques/culture ([2]; 50 μg/ml, 10^2 input)?
The Plaques/culture was 23 ± 5 Plaques/culture.

And the inhibition at 50 µg/mL ([2]; 50 μg/ml, 10^2 input)?
Its inhibition at 50 µg/mL is 79%.

And the Plaques/culture ([2]; 50 μg/ml, 10^3 input)?
The Plaques/culture was 131 ± 10 Plaques/culture.

What about the inhibition at 50 µg/mL ([2]; 50 μg/ml, 10^3 input) of the same compound?
Its inhibition at 50 µg/mL is 83%.

And the Plaques/culture ([2]; 500 μg/ml, 10^2 input)?
The Plaques/culture was 5 ± 3 Plaques/culture.

What about the inhibition at 500 µg/mL ([2]; 500 μg/ml, 10^2 input) of the same compound?
Its inhibition at 500 µg/mL is 95%.

What about the Plaques/culture ([2]; 500 μg/ml, 10^3 input) of the same compound?
The Plaques/culture was 43 ± 6 Plaques/culture.

And the inhibition at 500 µg/mL ([2]; 500 μg/ml, 10^3 input)?
Its inhibition at 500 µg/mL is 94%.

For `CCCCCCCCCCCCCCCCCCCCCCO` [C-22 Alcohol, n-docosanol], which Plaques/culture ([2]; 0.5 μg/ml, 10^2 input) is on record?
Its Plaques/culture is 110 ± 2 Plaques/culture.

And the inhibition at 0.5 µg/mL ([2]; 0.5 μg/ml, 10^2 input)?
Its inhibition at 0.5 µg/mL is 19%.

And the Plaques/culture ([2]; 0.5 μg/ml, 10^3 input)?
Its Plaques/culture is 703 ± 88 Plaques/culture.

And the inhibition at 0.5 µg/mL ([2]; 0.5 μg/ml, 10^3 input)?
Its inhibition at 0.5 µg/mL is 14%.

And the Plaques/culture ([2]; 5 μg/ml, 10^2 input)?
Its Plaques/culture is 84 ± 12 Plaques/culture.

What about the inhibition at 5 µg/mL ([2]; 5 μg/ml, 10^2 input) of the same compound?
Its inhibition at 5 µg/mL is 36%.

And the Plaques/culture ([2]; 5 μg/ml, 10^3 input)?
The Plaques/culture was 561 ± 50 Plaques/culture.

And the inhibition at 5 µg/mL ([2]; 5 μg/ml, 10^3 input)?
Its inhibition at 5 µg/mL is 31%.

And the Plaques/culture ([2]; 50 μg/ml, 10^2 input)?
The Plaques/culture was 72 ± 24 Plaques/culture.

And the inhibition at 50 µg/mL ([2]; 50 μg/ml, 10^2 input)?
The inhibition at 50 µg/mL was 45%.

What about the Plaques/culture ([2]; 50 μg/ml, 10^3 input) of the same compound?
Its Plaques/culture is 562 ± 11 Plaques/culture.

What about the inhibition at 50 µg/mL ([2]; 50 μg/ml, 10^3 input) of the same compound?
Its inhibition at 50 µg/mL is 31%.

And the Plaques/culture ([2]; 500 μg/ml, 10^2 input)?
The Plaques/culture was 13 ± 2 Plaques/culture.

And the inhibition at 500 µg/mL ([2]; 500 μg/ml, 10^2 input)?
Its inhibition at 500 µg/mL is 90%.

What about the Plaques/culture ([2]; 500 μg/ml, 10^3 input) of the same compound?
Its Plaques/culture is 401 ± 5 Plaques/culture.

What about the inhibition at 500 µg/mL ([2]; 500 μg/ml, 10^3 input) of the same compound?
Its inhibition at 500 µg/mL is 51%.

And the inhibition at 0.06 µg/mL ([2]; C-22 alcohol 0.06 μg/ml, 100 PFU/ml (10^2 input))?
The inhibition at 0.06 µg/mL was 7%.

What about the inhibition at 0.6 µg/mL ([2]; C-22 alcohol 0.6 μg/ml, 100 PFU/ml (10^2 input)) of the same compound?
The inhibition at 0.6 µg/mL was 22%.

What about the inhibition at 6 µg/mL ([2]; C-22 alcohol 6 μg/ml, 100 PFU/ml (10^2 input)) of the same compound?
The inhibition at 6 µg/mL was 40%.

What about the inhibition at 60 µg/mL ([2]; C-22 alcohol 60 μg/ml, 100 PFU/ml (10^2 input)) of the same compound?
The inhibition at 60 µg/mL was 89%.

What about the mean clinical score ([3]; 24 hours after the first treatment, vs untreated or control-treated, 5 mg once daily, half i.v., half s.c.) of the same compound?
The mean clinical score was “significant decrease in mean clinical score”.

What about the “P value, decrease in mean clinical score vs untreated” value ([3]; after further regimen of 3 treatments) of the same compound?
Its value is 0.001.

What about the mean clinical score ([3]; after further regimen of 3 treatments (days 50-52)) of the same compound?
The mean clinical score was “another significant decrease in mean clinical score”.

And the “P value, decrease in mean clinical score vs control-treated” value ([3]; after further regimen of 3 treatments, Pluronic F-68 control)?
Its value is 0.03.

And the “day of first complete clinical remission” value ([3]; after primary immunization (3 days after initial treatment))?
The value was 47 days.

And the clinically normal mammals ([3]; by day 55 after primary immunization)?
Its clinically normal mammals is 100%.

What about the “lag of remission in untreated or control-treated groups behind n-docosanol-treated group” value ([3]; complete clinical remission) of the same compound?
The value was 8 to 9 days.

And the mean clinical score ([3]; day 49, 48 hours after the last injection)?
The mean clinical score was “a rise in mean clinical score”.

What about the “occurrence of remission from CIA” value ([3]; panel B of FIG. 3) of the same compound?
The value was “hastened the occurrence of remission from CIA”.

Which plant growth activity [1] does the source give for `CCCCCCCCCCCCCCCCCCCCCCCCCCCCO` [octacosanol] here?
The plant growth activity was “do not possess such physiological activity, or at least have very much less physiological activity in plant growth”.

What about the “physical performance of athletes” value [4] of the same compound?
Its value is “improved physical performance of athletes”.

With `CCCCCCCCCCCCCCCCCCCCCCCCCCCCCCO` [1-triacontanol] as the compound, how does the plant growth activity [1] read?
The plant growth activity was “stimulates the growth of plants”.

And the “physical performance of athletes” value [4]?
Its value is “improved physical performance of athletes”.

And the anti-inflammatory effectiveness [5]?
The anti-inflammatory effectiveness was “the aerosol carrier destroyed the effect of triacontanol”.

Which “physical performance of athletes” value [4] does the source give for `CCCCCCCCCCCCCCCCCCCCCCCCO` [tetracosanol] here?
The value was “improved physical performance of athletes”.

With `CCCCCCCCCCCCCCCCCCCCCCCCCCO` [hexacosanol] as the compound, how does the “physical performance of athletes” value [4] read?
The value was “improved physical performance of athletes”.
